Laboratory results taken from patent publication US20060063784A1, “Method of using substituted pyrazolo [1,5-a] pyrimidines” (priority 2004, published 2006).
Like-named read-outs stand apart in the source and are kept apart here.

Tested on: 80S14 (p21-deficient) cells
Test: Cytotoxicity assay using isogenic cell lines: IC50 in 80S14 (p21-deficient) cells, SRB
Type: cell-based, human
Conditions: 80S14 p21-deficient cells, 5 days incubation, SRB, read-out: IC50 for 80SI4
Experimental: Cytotoxicity Assay Using Isogenic Cell Lines: • 1. 80S14 (p21-deficient) cells were cultured in RPMI 1640 medium (Gibco/Invitrogen Life technologies) supplemented with 10% fetal bovine serum (FBS, Gibco) and 10 μg/ml gentamycin (Gibco). Cells were maintained at 37° C. under 7% CO2 • 2. Cells were plated at 6×10^4/ml (0.2 ml/well; 12,000 cells/well) in 96-well microtiter plates (Falcon or Corning/Costar) and incubated at 37° C. overnight (18-24 hours). • 3. 2-5 μl of the test agent [200 μg/ml stock in 20% DMSO/20 mM HEPES, pH 7.5 (Gibco)] was added to each well to achieve a final concentration of 2-5 μg/ml. Cells were incubated with the test compounds for 5 days at 37° C. • 4. Surviving cells were fixed with 50 μl 50% trichloroacetic acid (Sigma; 10% final concentration) for 1 hour at 4° C. • 5. Plates were rinsed twice with water (0.3 ml per wash using MRD8 robot), and allowed to dry. • 6. Sulforhodamine B (SRB) (Sigma; 0.4% in 1% acetic acid, 50 μl per well; MRD8 robot) was added and plates kept at room temperature for 10 minutes. • 7. Excess dye was removed by washing with 1% acetic acid (3 times, 0.3 ml per wash; MRD8 robot) and allowed to dry. • 8. The dye was solubilized in Tris base (Sigma; 10 mM, 150 μl per well). Plates were kept at room temperature for 30 minutes to allow the dye to diffuse. • 9. Absorbance was measured at 540 nm. • 10. The percentage of cells surviving drug treatment relative to control wells (no drug) was determined. • 11. The difference in % cell survival between the two cell lines was calculated. • 12. Compounds producing a difference score of >50 were considered to be selective for the p21-deficient cells and were evaluated further: Determination of selectivity of compounds for p21−/− cells: • 1. 80S14 cells were cultured as described above. • 2. Cells were seeded in 96-well microtiter plates at 12,000 cells/well (either 0.15 ml/well of 8×10^4 cells/ml suspension, or 0.2 ml/well of 6×10^4 cells/ml suspension). Plates were incubated at 37° C. overnight (18-24 hours). • 3. Serial dilutions of the test agent were added to each well. Dilutions were prepared either in 40% DMSO/20% methanol/20 mM HEPES, pH 7.5 (Gibco) or directly in growth medium. One of two dose ranges were used: 5 pM to 50 μM or 170 pg/ml to 10 μg/ml. Cells were incubated with the test compounds for 5 days at 37° C. • 4. Surviving cells were fixed with 50 μl 50% trichloroacetic acid (Sigma; 10% final concentration) for 1 hour at 4° C. • 5. Plates were rinsed extensively in water, and allowed to dry. • 6. Sulforhodamine B (Sigma; 0.4% in 1% acetic acid, 70 μl per well) was added and plates kept at room temperature for 10 minutes. • 7. Excess dye was removed by washing 5 times with 1% acetic acid and plates were allowed to dry. • 8. The dye was solubilized in Tris base (Sigma; 10 mM, 150 μl per well). Plates were placed on a titer plate shaker (Lab Line Instruments) for 5 minutes to allow the dye to diffuse. • 9. Absorbance was measured at 560 nm.
10. The drug concentration that inhibits cell proliferation by 50% relative to untreated controls (IC50) was determined from cytotoxicity curves.

Structure (SMILES)	IC50	IC50 (Homo sapiens, 120 h)
CC(C)C[C@H](N)C(=O)Nc1cccc(-c2ccnc3c(C(=O)c4cccs4)cnn23)c1 [Example 79, N-1-{3-[3-(thien-2-ylcarbonyl)pyrazolo[1,5-a]pyrimidin-7-yl]phenyl}-L-leucinamide]	10 to 50 µM	
CC(C)C[C@H](N)C(=O)Nc1cccc(-c2ccnc3c(C(=O)c4cccs4)cnn23)c1 [Example 80, N-1-{3-[3-(thien-2-ylcarbonyl)pyrazolo[1,5-a]pyrimidin-7-yl]phenyl}-L-leucinamide]	1 to 10 µM	
N[C@@H](Cc1ccccc1)C(=O)Nc1cccc(-c2ccnc3c(C(=O)c4cccs4)cnn23)c1 [Example 81, N-{3-[3-(thien-2-ylcarbonyl)pyrazolo[1,5-a]pyrimidin-7-yl]phenyl}-L-phenylalaninamide]		10 to 50 µM
N[C@@H](CC1CCCCC1)C(=O)Nc1cccc(-c2ccnc3c(C(=O)c4cccs4)cnn23)c1 [Example 82, 3-cyclohexyl-N-1-[3-[3-(thien-2-ylcarbonyl)pyrazolo[1,5-a]pyrimidin-7-yl]phenyl}-L-alaninamide]	10 to 50 µM	
CC(C)[C@H](N)C(=O)Nc1cccc(-c2ccnc3c(C(=O)c4cccs4)cnn23)c1 [Example 83, N-1-{3-[3-(thien-2-ylcarbonyl)pyrazolo[1,5-a]pyrimidin-7-yl]phenyl}-L-valinamide]	1 to 10 µM	
NCCCC(=O)Nc1cccc(-c2ccnc3c(C(=O)c4cccs4)cnn23)c1 [Example 84, 4-amino-N-{3-[3-(thien-2-ylcarbonyl)pyrazolo[1,5-a]pyrimidin-7-yl]phenyl}butanamide]		10 to 50 µM
O=C(c1cccs1)c1cnn2c(-c3cccc(NC(=O)[C@@H]4CCCN4)c3)ccnc12 [Example 85]	1 to 10 µM	
N[C@H](C(=O)Nc1cccc(-c2ccnc3c(C(=O)c4cccs4)cnn23)c1)C1CCCCC1 [Example 86]	1 to 10 µM	
Cc1ccc(C(=O)Nc2cccc(-c3ccnc4c(C(=O)c5cccs5)cnn34)c2)cc1 [Example 87, 4-methyl-N-{3-[3-(thien-2-ylcarbonyl)pyrazolo[1,5-a]pyrimidin-7-yl]phenyl]benzamide]		< 1 µM
COc1ccc(C(=O)Nc2cccc(-c3ccnc4c(C(=O)c5cccs5)cnn34)c2)cc1 [Example 88, 4-methoxy-N-{3-[3-(thien-2-ylcarbonyl)pyrazolo[1,5-a]pyrimidin-7-yl]phenyl]benzamide]		< 1 µM
O=C(Nc1cccc(-c2ccnc3c(C(=O)c4cccs4)cnn23)c1)c1ccc(Cl)cc1 [Example 89]	1 to 10 µM	
O=C(Nc1cccc(-c2ccnc3c(C(=O)c4cccs4)cnn23)c1)c1ccc(Br)cc1 [Example 90, 4-bromo-N-{3-[3-(thien-2-ylcarbonyl)pyrazolo[1,5-a]pyrimidin-7-yl]phenyl}benzamide]		1 to 10 µM
CCCCCCCOc1ccc(C(=O)Nc2cccc(-c3ccnc4c(C(=O)c5cccs5)cnn34)c2)cc1 [Example 91, 4-(heptyloxy)-N-{3-[3-(thien-2-ylcarbonyl)pyrazolo[1,5-a]pyrimidin-7-yl]phenyl}benzamide]		10 to 50 µM
CCCCCc1ccc(C(=O)Nc2cccc(-c3ccnc4c(C(=O)c5cccs5)cnn34)c2)cc1 [Example 92, 4-pentyl-N-{3-[3-(thien-2-ylcarbonyl)pyrazolo[1,5-a]pyrimidin-7-yl]phenyl}benzamide]		10 to 50 µM
COc1cccc(C(=O)Nc2cccc(-c3ccnc4c(C(=O)c5cccs5)cnn34)c2)c1 [Example 97, 3-methoxy-N-{3-[3-(thien-2-ylcarbonyl)pyrazolo[1,5-a]pyrimidin-7-yl]phenyl}benzamide]		< 1 µM
O=C(Nc1cccc(-c2ccnc3c(C(=O)c4cccs4)cnn23)c1)c1cccc(F)c1 [Example 98, 3-fluoro-N-{3-[3-(thien-2-ylcarbonyl)pyrazolo[1,5-a]pyrimidin-7-yl]phenyl}benzamide]		< 1 µM
COc1ccc(C(=O)Nc2cccc(-c3ccnc4c(C(=O)c5cccs5)cnn34)c2)cc1OC [Example 99, 3,4-dimethoxy-N-{3-[3-(thien-2-ylcarbonyl)pyrazolo[1,5-a]pyrimidin-7-yl]phenyl}benzamide]		1 to 10 µM
